Reference: PubChem BioAssay (NCI)
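Cultured in 96-well plates, cells were exposed to test compound for 48 hours across five concentrations. GI50 = concentration required for 50% inhibition of growth. TGI marks complete inhibition of growth.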

Tests used:
Test in all cases: growth of human tumour cells (NCI), 48 h
MALME-3M melanoma = test system: MALME-3M melanoma
MCF7 breast = test system: MCF7 breast
MOLT-4 leukemia = test system: MOLT-4 leukemia
NCI-H226 lung = test system: NCI-H226 lung
OVCAR-4 ovarian = test system: OVCAR-4 ovarian
SF-295 CNS = test system: SF-295 CNS
SF-539 CNS = test system: SF-539 CNS
SK-MEL-5 melanoma = test system: SK-MEL-5 melanoma
U251 CNS = test system: U251 CNS
HOP-62 NSCLC = test system: HOP-62 NSCLC

| SMILES | TGI (MALME-3M melanoma) [µM] | TGI (MCF7 breast) [µM] | TGI (MOLT-4 leukemia) [µM] | TGI (NCI-H226 lung) [µM] | TGI (OVCAR-4 ovarian) [µM] | TGI (SF-295 CNS) [µM] | TGI (SF-539 CNS) [µM] | TGI (SK-MEL-5 melanoma) [µM] | TGI (U251 CNS) [µM] | GI50 (HOP-62 NSCLC) [µM] | TGI (HOP-62 NSCLC) [µM] | GI50 (MCF7 breast) [µM] | GI50 (MOLT-4 leukemia) [µM] | GI50 (NCI-H226 lung) [µM] | GI50 (OVCAR-4 ovarian) [µM] | GI50 (SF-295 CNS) [µM] | GI50 (SF-539 CNS) [µM] | GI50 (SK-MEL-5 melanoma) [µM] | GI50 (U251 CNS) [µM] |
| --- | --- | --- | --- | --- | --- | --- | --- | --- | --- | --- | --- | --- | --- | --- | --- | --- | --- | --- | --- |
| O=C(Nc1ccc(Cl)cc1)C(=O)C1=C(O)c2ccccc2OC1 | > 100 | > 100 | > 100 | > 100 | > 100 | > 100 | > 100 | > 100 | > 100 | – | – | – | – | – | – | – | – | – | – |
| COC(=O)[C@@]12C3=NO[C@]1(C(=O)OC)C(O[Si](C)(C)C(C)(C)C)C1OC(C)(C)OC1[C@@H]2[C@@H](OCc1ccccc1)CC3 (stereo not given in full) | – | – | > 100 | > 100 | > 100 | > 100 | > 100 | > 100 | > 100 | – | – | – | – | – | – | – | – | – | – |
| Cc1nc(N=C(N)N)nc2ccc3ccccc3c12 | – | 2.93 | 3.62 | 3.58 | 5.1 | 4.43 | 2.98 | 3.32 | 2.29 | 1.25 | 3.6 | 0.441 | 1.37 | 1.29 | 1.44 | 1.03 | 1.39 | 1.51 | 0.676 |
| Nc1ccc(C(=O)O)c2[nH]c3ccccc3c(=O)c12 | > 100 | – | > 100 | – | > 100 | > 100 | > 100 | > 100 | > 100 | – | > 100 | – | – | – | – | – | – | – | – |
| Cc1cc(C)c2c(c1C)CN1CN2Cc2c(C)c(C)cc(C)c21 | > 100 | – | > 100 | > 100 | > 100 | > 100 | > 100 | – | > 100 | – | > 100 | – | – | – | – | – | – | – | – |
| Cc1ccc(NC(=O)CCC(=O)C2CC(=O)CCC2=O)cc1C (stereo not given) | > 100 | – | > 100 | > 100 | > 100 | > 100 | > 100 | > 100 | > 100 | – | > 100 | – | – | – | – | – | – | – | – |
| COc1ccc(Br)c(CCCCC(=O)O)c1 | – | – | > 100 | – | > 100 | > 100 | > 100 | > 100 | > 100 | – | > 100 | – | – | – | – | – | – | – | – |
| COC(=O)C1(c2ccc(OC)cc2)NC(c2ccccc2)C2C(=O)N(c3ccc(OC)cc3)C(=O)C21 (stereo not given) | > 100 | – | > 100 | – | > 100 | > 100 | > 100 | > 100 | > 100 | – | – | – | – | – | – | – | – | – | – |
| CCOC(=O)C12CN(C34CC5CC(CC(C5)C3)C4)CC(C(=O)OCC)(C1=O)C(c1ccccc1)OC2c1ccccc1 (stereo not given) | > 100 | – | > 100 | > 100 | > 100 | > 100 | – | > 100 | > 100 | – | > 100 | – | – | – | – | – | – | – | – |
| C=C1C(=O)C23C(O)C1CCC2C12CO[C@]3(O)[C@@H](O)C1C(C)(C)CCC2O (stereo not given in full) | 17.5 | – | > 38.9 | 34.9 | – | 30.6 | 28.2 | 37 | 32.2 | – | 40.5 | – | – | – | – | – | – | – | – |
| O=C1NCC2=C1CCC1c3ccccc3CCN21 (stereo not given) | > 100 | – | > 100 | > 100 | – | > 100 | > 100 | > 100 | > 100 | – | – | – | – | – | – | – | – | – | – |
| COc1ccc(C(=O)Nc2ccccc2)cc1[N+](=O)[O-] | > 100 | – | > 100 | > 100 | – | > 100 | > 100 | > 100 | > 100 | – | > 100 | – | – | – | – | – | – | – | – |
| COc1cc(C2c3cc4c(cc3[C@@H](OCCN)[C@H]3COC(=O)C23)OCO4)cc(OC)c1O (stereo not given in full) | 1.59 | – | 0.733 | 0.933 | 5.79 | 0.543 | 0.345 | 1.49 | 0.401 | – | 0.34 | – | – | – | – | – | – | – | – |
| Fc1cccc(C=NC23CC4CC(CC(C4)C2)C3)c1 | > 100 | – | > 100 | > 100 | > 100 | > 100 | > 100 | – | > 100 | – | > 100 | – | – | – | – | – | – | – | – |
| COc1cc(-c2[nH]ncc2CCCC(=O)Nc2ccccc2[N+](=O)[O-])ccc1O | 48.9 | – | > 100 | > 100 | > 100 | > 100 | > 100 | > 100 | > 100 | – | > 100 | – | – | – | – | – | – | – | – |
| Cn1c(=O)c2c(nc3n2C(CCl)CO3)n(C)c1=O (stereo not given) | > 100 | – | > 100 | > 100 | > 100 | > 100 | > 100 | > 100 | > 100 | – | > 100 | – | – | – | – | – | – | – | – |
| N/C(=N\N=C=C1C(=O)Nc2ccc(F)cc21)NO | > 100 | – | > 100 | – | > 100 | > 100 | > 100 | > 100 | > 100 | – | > 100 | – | – | – | – | – | – | – | – |
| CC1=C(C(=O)Nc2cc(F)c(F)cc2F)C(c2cccc([N+](=O)[O-])c2)C(C(=O)Nc2ccccc2C(F)(F)F)=C(C)N1 (stereo not given) | 77.8 | – | 42 | 74.7 | 66.1 | 48.8 | 53.1 | 63.9 | 53.1 | – | 54.5 | – | – | – | – | – | – | – | – |
| CNS(=O)(=O)NN(C)S(=O)(=O)c1ccc(C)cc1 | > 100 | – | > 100 | – | > 100 | > 100 | > 100 | > 100 | – | – | > 100 | – | – | – | – | – | – | – | – |
| COC(=O)C1(C)CCc2c(ccc3ccccc23)C1=O (stereo not given) | 69 | 81.2 | > 100 | – | – | > 100 | > 100 | 35.9 | > 100 | – | > 100 | – | – | – | – | – | – | – | – |
| CCOC(=O)c1c(-c2ccccc2)[nH]c2ccccc2c1=O | > 100 | > 100 | > 100 | – | > 100 | > 100 | – | > 100 | > 100 | – | > 100 | – | – | – | – | – | – | – | – |
| COC(=O)C12C3C=CC(O3)C1C1C=CC2O1 (stereo not given) | > 100 | – | > 100 | > 100 | – | > 100 | > 100 | > 100 | > 100 | – | – | – | – | – | – | – | – | – | – |
| COc1ccc(Nc2nc3c(N)cc(C(F)(F)F)cc3nc2-c2ccccc2)cc1 | > 100 | – | > 100 | > 100 | > 100 | > 100 | > 100 | > 100 | > 100 | – | > 100 | – | – | – | – | – | – | – | – |
